Results on nine compounds are retold here after patent US20170209432A1, “LYSINE DEMETHYLASE INHIBITORS FOR MYELOPROLIFERATIVE OR LYMPHOPROLIFERATIVE DISEASES OR DISORDERS” (ORYZON GENOMICS S.A., priority 2011, published 2017).

Read-outs that look alike come from different tables or passages of the source. Where only a bound is given, the exact number is not on record here.

Experiment [1] has as its system K562 chronic myelogenous leukemia cells. In words: In vitro cytotoxicity, fluorometry-based cell viability, K562. The following applies: Homo sapiens, K562, 72 h. The protocol:
(§1) K562 chronic myelogenous leukemia cells were seeded at different cell densities in 96-well plates. 24 hours later, compounds were added at serial dilutions.

A further experiment relates to platelets. In words: Platelet levels in mice after 5 consecutive once daily injections. The format is in vivo, mice (Hsd:Athymic Nude-Foxn1nu). The following applies: blood 60min after last dose. How it is done:
On the fifth day, 60min after the administration, mice were sacrificed and blood was collected in sodium citrate-containing tubes for haemogram analysis. Platelet levels were determined and referred as % of platelets compared with the levels found in mice treated with vehicle. Platelet levels were determined in a standard hematology analyzer (Abacus Junior Vet, from Diatron) following the manufacturer's instructions.
20% 2-hydroxypropyl-β-cyclodextrin in H2O was used as a vehicle. When necessary, 10% DMSO was also added in the vehicle. Each day, compounds were administered in a single intraperitoneal injection with administration volumes of 15 ml/kg.
Mice strain was Hsd:Athymic Nude-Foxn1nu. Animals were maintained in air and temperature controlled cages with regular supply of water and food.

Experiment [2] concerns the target T1, Human recombinant monoamine oxidase MAO-A (Homo sapiens, UniProt P21397).
T1 construct: purchased Sigma Aldrich
T1 sequence (P21397 1-527): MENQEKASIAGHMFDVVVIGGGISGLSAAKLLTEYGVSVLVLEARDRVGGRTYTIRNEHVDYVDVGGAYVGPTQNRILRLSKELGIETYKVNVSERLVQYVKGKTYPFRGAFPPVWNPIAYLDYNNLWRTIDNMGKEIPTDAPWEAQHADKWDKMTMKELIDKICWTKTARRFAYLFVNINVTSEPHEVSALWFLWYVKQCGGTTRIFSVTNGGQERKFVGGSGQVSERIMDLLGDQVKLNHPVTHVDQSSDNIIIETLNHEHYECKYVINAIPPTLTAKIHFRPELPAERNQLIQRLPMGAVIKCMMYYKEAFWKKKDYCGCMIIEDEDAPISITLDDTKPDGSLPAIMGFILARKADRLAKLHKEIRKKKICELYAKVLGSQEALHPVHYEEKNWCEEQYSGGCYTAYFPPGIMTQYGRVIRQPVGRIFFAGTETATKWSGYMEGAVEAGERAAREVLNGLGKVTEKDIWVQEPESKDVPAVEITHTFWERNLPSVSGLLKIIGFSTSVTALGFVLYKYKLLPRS
In words: MAO-A inhibition, kynuramine fluorescence assay. In kind it is biochemical. The text has this: (§2) Human recombinant monoamine oxidase proteins MAO-A and MAO-B were purchased from Sigma Aldrich. MAOs catalyze the oxidative deamination of primary, secondary and tertiary amines. In order to monitor MAO enzymatic activities and/or their inhibition rate by inhibitor(s) of interest, a fluorescent-based (inhibitor)-screening assay was set up. 3-(2-Aminophenyl)-3-oxopropanamine (kynuramine dihydrobromide, Sigma Aldrich), a non fluorescent compound was chosen as a substrate. Kynuramine is a non-specific substrate for both MAOs activities. While undergoing oxidative deamination by MAO activities, kynuramine is converted into 4-hydroxyquinoline (4-HQ), a resulting fluorescent product.
The monoamine oxidase activity was estimated by measuring the conversion of kynuramine into 4-hydroxyquinoline. Assays were conducted in 96-well black plates with clear bottom (Corning) in a final volume of 100 μL. The assay buffer was 100 mM HEPES, pH 7.5. Each experiment was performed in triplicate within the same experiment.
Briefly, a fixed amount of MAO (0.25 μg for MAO-A and 0.5 μg for MAO-B) was incubated on ice for 15 minutes in the reaction buffer, in the absence and/or in the presence of various concentrations of inhibitor (e.g., from 0 to 50 μM, depending on the inhibitor strength).
After leaving the enzyme(s) interacting with the inhibitor, 60 to 90 μM of kynuramine was added to each reaction for MAO-B and MAO-A assay respectively, and the reaction was left for 1 hour at 37° C. in the dark. The oxidative deamination of the substrate was stopped by adding 50 μL (v/v) of NaOH 2N. The conversion of kynuramine to 4-hydroxyquinoline, was monitored by fluorescence (excitation at 320 nm, emission at 360 nm) using a microplate reader (Infinite 200, Tecan). Arbitrary units were used to measure levels of fluorescence produced in the absence and/or in the presence of inhibitor.
(§3) The Ki (IC50) of each inhibitor was determined at Vmax/2.

The next experiment has as its target LSD1 (Homo sapiens, UniProt O60341). Kind of experiment: LSD1 demethylase inhibition, Amplex Red peroxide/peroxidase-coupled assay. Details: purchased BPS Bioscience Inc. In kind it is biochemical. The source says: Compounds for use in the methods of the invention can be identified by their ability to inhibit LSD1. The ability of the compounds of the invention to inhibit LSD1 can be tested as follows. Human recombinant LSD1 protein was purchased from BPS Bioscience Inc. In order to monitor LSD1 enzymatic activity and/or its inhibition rate by our inhibitor(s) of interest, di-methylated H3-K4 peptide (Millipore) was chosen as a substrate. The demethylase activity was estimated, under aerobic conditions, by measuring the release of H2O2 produced during the catalytic process, using the Amplex® Red peroxide/peroxidase-coupled assay kit (Invitrogen).
Within the experiment, each concentration of inhibitor was tested in triplicate. […] The enzymatic reactions were set up in a 50 mM sodium phosphate, pH 7.4 buffer. At the end of the incubation, Amplex® Red reagent and horseradish peroxidase (HPR) solution were added to the reaction according to the recommendations provided by the supplier (Invitrogen), and left to incubate for 30 extra minutes at room temperature in the dark. A 1 μM H2O2 solution was used as a control of the kit efficiency. The conversion of the Amplex® Red reagent to resorufin due to the presence of H2O2 in the assay, was monitored by fluorescence (excitation at 540 nm, emission at 590 nm) using a microplate reader (Infinite 200, Tecan). Arbitrary units were used to measure level of H2O2 produced in the absence and/or in the presence of inhibitor.
The maximum demethylase activity of LSD1 was obtained in the absence of inhibitor and corrected for background fluorescence in the absence of LSD1. The Ki (IC50) of each inhibitor was estimated at half of the maximum activity.

Experiment [3] addresses T2, Human recombinant monoamine oxidase MAO-B (Homo sapiens, UniProt P27338).
T2 construct: purchased Sigma Aldrich
T2 sequence (P27338 1-520): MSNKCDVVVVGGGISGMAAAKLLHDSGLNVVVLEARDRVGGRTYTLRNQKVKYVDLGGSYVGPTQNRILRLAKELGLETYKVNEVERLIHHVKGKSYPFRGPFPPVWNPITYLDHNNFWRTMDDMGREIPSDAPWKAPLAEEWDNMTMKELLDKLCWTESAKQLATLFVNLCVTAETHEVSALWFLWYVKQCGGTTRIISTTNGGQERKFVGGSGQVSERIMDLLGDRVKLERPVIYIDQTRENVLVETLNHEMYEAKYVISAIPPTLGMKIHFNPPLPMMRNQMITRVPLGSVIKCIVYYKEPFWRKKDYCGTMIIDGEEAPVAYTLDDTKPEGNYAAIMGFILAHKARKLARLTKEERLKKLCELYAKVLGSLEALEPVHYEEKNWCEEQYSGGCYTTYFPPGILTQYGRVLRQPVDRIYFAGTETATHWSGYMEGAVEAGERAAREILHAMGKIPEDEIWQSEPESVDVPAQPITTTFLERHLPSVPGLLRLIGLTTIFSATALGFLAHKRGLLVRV
In words: MAO-B inhibition, kynuramine fluorescence assay. In kind it is biochemical.
From the text: as §2
The monoamine oxidase activity was estimated by measuring the conversion of kynuramine into 4-hydroxyquinoline. […]
After leaving the enzyme(s) interacting with the inhibitor, 60 to 90 μM of kynuramine was added to each reaction for MAO-B and MAO-A assay respectively, and the reaction was left for 1 hour at 37° C. in the dark. […] The conversion of kynuramine to 4-hydroxyquinoline, was monitored by fluorescence (excitation at 320 nm, emission at 360 nm) using a microplate reader (Infinite 200, Tecan). Arbitrary units were used to measure levels of fluorescence produced in the absence and/or in the presence of inhibitor.
as §3

For experiment [4], the system named is Jurkat (acute T cell leukemia). In words: In vitro cytotoxicity, Jurkat. In kind it is cell-based. Conditions: Homo sapiens, same protocol as K562. The protocol: as §1
(§4) Following the same protocol, in vitro cytotoxicity against other hematological cancer cell lines was tested.

For experiment [5], the system named is HL-60 (acute promyelocytic leukemia). In words: In vitro cytotoxicity, HL-60. In kind it is cell-based. The following applies: Homo sapiens; HL-60, same protocol as K562. How it is done: as §1, §4
Experiment [6] has as its system RPMI-8226 (Multiple myeloma). In words: In vitro cytotoxicity, RPMI-8226. In kind it is cell-based. The following applies: Homo sapiens; RPMI-8226, same protocol as K562. How it is done:
as §1, §4

In experiment [7] the test system is H3K4 methylation in SH-SY5Y cells. In words: Western blot for dimethylated H3-K4 in cells grown with compound. The format is cell-based. The text has this:
FIG. 3 Compound Dual-1 Increases Histone Methylation.
B-actin was used as a loading control.

[8] abbreviates: read-out: EC50 (μM), concentration at which 50% of the cells remain viable, K562, cell density 3xA, 72h after compound addition.
[9] abbreviates: read-out: EC50 (μM), concentration at which 50% of the cells remain viable, K562, cell density 10xA, 72h after compound addition.
The mark [10] stands for this setting: read-out: EC50 (μM), concentration at which 50% of the cells remain viable, K562, cell density A, 72h after compound addition.
[11] abbreviates: 3 mg/kg intraperitoneal once daily for 5 days.
Where [12] appears, read: 10 mg/kg intraperitoneal once daily for 5 days.
[13] abbreviates: 20 mg/kg intraperitoneal once daily for 5 days.
Setting [14] is: 40 mg/kg intraperitoneal once daily for 5 days.
Setting [15] is: 30 mg/kg intraperitoneal once daily for 5 days.

Turning to `CC(C)S(=O)(=O)Nc1cccc(-c2ccc([C@H]3C[C@@H]3N)cn2)c1` [Compound 9], the EC50 in experiment [1] (setting [8]) came out at 57.1 µM; in [1] (setting [9]) it was 95.1 µM; in experiment [1] (setting [10]), 31.5 µM.

`CN1CCN(C(=O)CN[C@H]2C[C@@H]2c2ccc(OCc3ccccc3)cc2)CC1` (racemic) [Compound 3]: the “% platelets vs. Vehicle” value came to 46% in the experiment on platelets (1 mg/kg intraperitoneal once daily for 5 days), 16% in the experiment on platelets (setting [11]) and 5% with platelets (setting [12]).

As to `NC(=O)CN[C@@H]1C[C@H]1c1ccc(OCc2ccccc2)cc1` [Compound 2], the IC50 in experiment [2] was over 2 µM; at LSD1 it was under 0.2 µM. Besides, the “% platelets vs. Vehicle” value with platelets (setting [13]) was found to be 35%; in the experiment on platelets (setting [14]) it was 27%; in the experiment on platelets (60 mg/kg intraperitoneal once daily for 5 days) it was 16%.

`N[C@H]1CCN(CCN[C@H]2C[C@@H]2c2ccc(-c3cccc(C(F)(F)F)c3)cc2)C1` [Compound 5]: the “% platelets vs. Vehicle” value with platelets (setting [12]) is recorded as 87%; in the experiment with platelets (setting [15]), 63%.

With `N[C@H]1CC1c1ccc(-c2cccc(O)c2)cc1` (stereo partly drawn) [Compound 6], the values for the IC50 (in experiment [2]; in experiment [3]; on LSD1) were over 1 µM, over 1 µM and under 0.07 µM, respectively. For the same compound, the “% platelets vs. Vehicle” value was 56% in the experiment with platelets (17 mg/kg intraperitoneal once daily for 5 days), 46% in the experiment on platelets (34 mg/kg intraperitoneal once daily for 5 days) and 63% in the experiment on platelets (52 mg/kg intraperitoneal once daily for 5 days). The EC50 in experiment [1] (setting [8]) worked out at 10.3 µM; in [1] (setting [9]), 16.8 µM; in experiment [1] (setting [10]), 16.2 µM.

With `N[C@H]1C[C@@H]1c1ccc(-c2cccc(NS(=O)(=O)c3ccccc3)c2)cc1` [Compound 10], the EC50 in experiment [1] (setting [8]) was found to be 13.2 µM; in [1] (setting [9]), 17.4 µM; in [1] (setting [10]), 14.8 µM.

As for `CC(C)S(=O)(=O)Nc1cccc(-c2ccc([C@H]3C[C@@H]3N)cc2)c1` [Compound 8], the IC50 is over 1 µM in experiment [2], over 10 µM in experiment [3] and under 0.07 µM at LSD1. Further, the EC50 in [1] (setting [8]) came out at 16.3 µM; in [1] (setting [9]), 19.7 µM; in [1] (setting [10]) it was 17.2 µM. The GI50 in [4] is 18.2 µM; in [5], 21.2 µM; in [6] it was 35.6 µM.

Turning to `NC(=O)CN[C@H]1CC1c1ccc(OCc2ccccc2)cc1` (stereo partly drawn) [Compound 1], the figures for the IC50 (in experiment [2]; against LSD1) were over 2 µM and under 0.2 µM, respectively. The “H3K4 methylation in cells (western blot)” value in experiment [7] (SH-SY5Y cells grown with compound for 1, 2, and 3 days, Dual-1 at 100 μM (FIG. 3)) was “increases H3K4 (4 methylation in cells in a time dependent manner”. Besides, the “potency at increasing global dimethylated H3K4 levels as compared to tranylcypromine” value in [7] (SH-SY5Y cells, Dual-1 at 100 μM, parnate at 250 μM) is given as at least 10 fold. Further, the “% platelets vs. Vehicle” value in the experiment with platelets (5 mg/kg intraperitoneal once daily for 5 days) turned out to be 91%; with platelets (setting [12]), 66%; in the experiment with platelets (setting [13]), 55%; in the experiment on platelets (setting [14]), 34%.

Turning to `N[C@H]1C[C@@H]1c1ccc(-c2cccc(C(F)(F)F)c2)nc1` [Compound 4], the “% platelets vs. Vehicle” value is listed as 87% in the experiment with platelets (setting [11]); 30% in the experiment with platelets (9 mg/kg intraperitoneal once daily for 5 days); 19% in the experiment with platelets (setting [12]); 19% in the experiment with platelets (18 mg/kg intraperitoneal once daily for 5 days); 7% in the experiment with platelets (setting [15]); 11% in the experiment with platelets (36 mg/kg intraperitoneal once daily for 5 days).
